Results as given in patent US10722501B2 (BAYER AKTIENGESELLSCHAFT, priority 2016, dated 2020).

Biological target: T1, recombinant full-length human prolyl endopeptidase (PREP) (Homo sapiens, UniProt P48147)
T1 construct: To recombinant full-length human prolyl endopeptidase (PREP, R&D-Systems, 4308-SE); purchased R&D-Systems 4308-SE
T1 sequence (P48147 1-710): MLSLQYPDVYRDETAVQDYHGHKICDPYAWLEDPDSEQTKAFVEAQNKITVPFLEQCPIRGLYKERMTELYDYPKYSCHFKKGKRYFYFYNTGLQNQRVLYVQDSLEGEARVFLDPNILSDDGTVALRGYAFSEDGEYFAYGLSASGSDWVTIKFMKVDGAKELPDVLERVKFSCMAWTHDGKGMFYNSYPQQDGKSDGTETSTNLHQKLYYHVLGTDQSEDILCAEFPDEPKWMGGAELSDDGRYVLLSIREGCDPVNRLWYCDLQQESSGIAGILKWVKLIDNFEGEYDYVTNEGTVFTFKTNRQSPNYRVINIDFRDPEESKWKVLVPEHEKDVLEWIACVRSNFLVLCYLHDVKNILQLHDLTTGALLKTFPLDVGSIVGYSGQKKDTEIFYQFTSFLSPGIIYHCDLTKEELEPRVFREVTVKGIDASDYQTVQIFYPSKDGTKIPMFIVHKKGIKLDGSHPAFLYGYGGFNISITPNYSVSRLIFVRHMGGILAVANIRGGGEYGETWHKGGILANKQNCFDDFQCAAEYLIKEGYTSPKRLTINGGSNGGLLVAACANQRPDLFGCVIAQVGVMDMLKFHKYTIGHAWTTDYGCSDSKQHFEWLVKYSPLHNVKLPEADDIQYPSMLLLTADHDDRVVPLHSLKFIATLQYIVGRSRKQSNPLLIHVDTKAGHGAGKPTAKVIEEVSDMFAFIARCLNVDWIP
Assay: Biochemical human prolyl endopeptidase (PREP) assay with fluorescently labelled substrate
Details: substrate Z-Gly-Pro-AMC 50 μM, 32° C., 60 min; some as mean values from multiple independent determinations
Summary of the method: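 0.4 nM (final, example) recombinant PREP in pH 7.5 Tris buffer with EDTA, GSH, BSA and Brij-35; compounds at 1 nM to 30 μM. Reaction started with 50 μM Z-Gly-Pro-AMC and followed by fluorescence (ex 360/em 465 nm) at 32° C for 60 min. IC50 interpolated from percent activity based on initial slopes.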

IC50	SMILES
0.81 nM	CCn1nc(C(F)(F)F)cc1Cn1nc2n(c1=O)[C@H](C(=O)N1CC[C@H](F)C1)CCC2 [Example 360, (5S)-2-{[1-Ethyl-3-(trifluoromethyl)-1H-pyrazol-5-yl]methyl}-5-{[(3S)-3-fluoropyrrolidin-1-yl]carbonyl}-5,6,7,8-tetrahydro[1,2,4]triazolo[4,3-a]pyridin-3(2H)-one]
7.6 nM	O=C(C1CCC(C(F)(F)F)c2nn(Cc3ncccc3F)c(=O)n21)N1CC[C@H](F)C1 (mixture of isomers) [Example 273, (5RS,8RS)-2-[(3-Fluoropyridin-2-yl)methyl]-5-{[(3S)-3-fluoropyrrolidin-1-yl]carbonyl}-8-(trifluoromethyl)-5,6,7,8-tetrahydro[1,2,4]triazolo[4,3-a]pyridin-3(2H)-one]
2.8 nM	O=C(C1CCc2nn(Cc3ccc(Cl)nc3)c(=O)n21)N1CC[C@H](F)C1 (mixture of isomers) [Example 163, (5RS)-2-[(6-Chloropyridin-3-yl)methyl]-5-{[(3S)-3-fluoropyrrolidin-1-yl]carbonyl}-2,5,6,7-tetrahydro-3H-pyrrolo[2,1-c][1,2,4]triazol-3-one]
0.615 nM	O=C([C@@H]1CCCc2nn(Cc3ccc(F)c(C(F)(F)F)c3)c(=O)n21)N1CC[C@H](F)C1 [Example 448, (5S)-5-{[(3S)-3-Fluoropyrrolidin-1-yl]carbonyl}-2-[4-fluoro-3-(trifluoromethyl)benzyl]-5,6,7,8-tetrahydro[1,2,4]triazolo[4,3-a]pyridin-3(2H)-one]

The remaining lines, values behind:

SMILES	IC50
Cc1ccc(CCn2nc3n(c2=O)C(C(=O)N2CCCC2)CCC3)cc1 (racemic) [Example 57, (5RS)-2-[2-(4-Methylphenyl)ethyl]-5-(pyrrolidin-1-ylcarbonyl)-5,6,7,8-tetrahydro[1,2,4]triazolo[4,3-a]pyridin-3(2H)-one]	4.1 nM
Cc1ccc(Cn2nc3n(c2=O)C(C(=O)N2CCC(=O)C2)CCC3)cc1 (single isomer, unassigned) [Example 119, (5RS)-2-(4-Methylbenzyl)-5-[(3-oxopyrrolidin-1-yl)carbonyl]-5,6,7,8-tetrahydro[1,2,4]triazolo[4,3-a]pyridin-3(2H)-one]	1.4 nM
O=C(C1CCCc2nn(Cc3cccc(C(F)(F)F)c3)c(=O)n21)N1CC(O)C1 (single isomer, unassigned) [Example 98, (5RS)-5-[(3-Hydroxyazetidin-1-yl)carbonyl]-2-[3-(trifluoromethyl)benzyl]-5,6,7,8-tetrahydro[1,2,4]triazolo[4,3-a]pyridin-3(2H)-one]	257 nM

Test system: PGP
Assay: not given
Details: COPD patients treated; cited from earlier work

SMILES	concentration of PGP in the sputum and serum
O=C(Nc1c(Cl)cncc1Cl)c1ccc(OC(F)F)c(OCC2CC2)c1 [roflumilast]	decrease
